The values below come from US7763707B2, “Use of ghrelin splice variant for treating cachexia and/or anorexia and/or anorexia-cachexia and/or malnutrition and/or lipodystrophy and/or muscle wasting and/or appetite-stimulation” (priority 2006, dated 2010).

A short description of assay [1]: Subcutaneous administration of acylated ghrelin splice variant: weight gain, food consumption, body composition in 129Sv mice. Format: in vivo. The procedure:
FIG. 1A is a line graph showing cumulative body weight gain of acylated ghrelin splice variant-treated (SEQ ID NOs: 2 and 5) 129Sv mice compared to vehicle-treated controls. Acylated ghrelin splice variant induces body weight gain in male wild-type mice (n=10 per group, P=0.0001). In mice treated once daily for two weeks with acylated ghrelin splice variant (0.8 mg/kg, subcutaneously), cumulative weight gain of the SEQ ID NO:2 group was 3.4 times more than the vehicle-injected control animals. Cumulative weight gain of the acylated SEQ ID NO:5 group was 2 times more than the vehicle-injected control animals. FIG. 1B is a line graph showing cumulative food consumption of acylated ghrelin splice variant-treated (SEQ ID NOs: 2 and 5) 129Sv mice compared to vehicle-treated controls. […] Mice treated once daily for two weeks with acylated ghrelin splice variant (0.8 mg/kg, subcutaneously) ate 13% more than the vehicle-injected control animals (n=10 per group, P=0.004).
FIG. 2A is a line graph showing cumulative body weight gain of acylated ghrelin splice variant-treated (SEQ ID NOs: 2 and 4) 129Sv mice and of unacylated SEQ ID NO:5 compared to vehicle-treated controls. Acylated ghrelin splice variants induces body weight gain in male wild-type mice (n=8 per group, P=0.0001). In mice treated once daily for seven days with acylated or un-acylated ghrelin splice variant (7.2 mg/kg, subcutaneously), cumulative weight gain of the SEQ ID NO:2 and SEQ ID NO:4 group was 2.2 times more than the vehicle-injected control animals. Cumulative weight gain of the un-acylated SEQ ID NO:5 group was 25% less than the vehicle-injected control animals. FIG. 2B is a line graph showing cumulative food consumption of acylated ghrelin splice variant-treated (SEQ ID NOs: 2 and 4) 129Sv mice and of unacylated SEQ ID NO:5 compared to vehicle-treated controls. […] Mice treated once daily for seven days with acylated ghrelin splice variants (7.2 mg/kg, subcutaneously) ate 18% more than the vehicle-injected control animals (n=8 per group). Mice treated once daily for seven days with SEQ ID NO:5 (7.2 mg/kg, subcutaneously) ate 2% less than the vehicle-injected control animals (n=8 per group).
FIG. 4 is a bar graph showing the change in body composition of acylated ghrelin splice variant-treated (SEQ ID NOs: 2 and 4) 129Sv mice and unacylated SEQ ID NO:5 treated mice compared to vehicle and ghrelin-treated controls. Effect of seven days daily subcutaneous treatment with saline, ghrelin or acylated ghrelin splice variant (7.2 mg/kg, subcutaneously) on fat and lean body mass as measured by NMR is shown.
Acylated ghrelin splice variant (20 μg (FIGS. 1A and 1B) or 180 μg (FIGS. 2A and 2B)) or the Vehicle (1.6% mannitol) were administered once daily for 14 successive days (FIGS. 1A and 1B) or 7 successive days (FIGS. 2A and 2B), via the subcutaneous (SC) route, to groups comprising n=10 (FIGS. 1A and 1B) or n=8 (FIGS. 2A and 2B) 129Sv male mice. […] All animals were subjected to terminal bleeding, under CO2 anesthesia, immediately prior to euthanasia. Terminal blood collection was performed serially as per animal number, and not as per group.
Biochemistry: Blood for biochemistry analysis was collected into non-coated pre-labeled tubes. The tubes were pre-labeled and contained the following information: Study number, group number, animal number and date. Following clotting, the blood from each animal was centrifuged, and the serum was collected into two pre-labeled tubes and submitted for analysis as follows: Serum, 250 μl, was kept at 2-8° C. until analysis. The samples were subjected to the following listed tests using a Hitachi 917 system: Creatinine, Total bilirubin, Glucose, Triglycerides, Cholesterol, HDL, LDL, Total protein, Globulin, Albumin, Urea, Potassium, Phosphorus, Calcium, Sodium, Chloride, sGOT, sGPT, ALP. Urinalysis: Urine was collected into pre-labeled tubes (as above) from all animals (where possible) prior and/or after euthanasia. […]

The conditions of assay [2]: cited from earlier work.
[3] abbreviates: 129Sv male mice, 7.2 mg/kg subcutaneously once daily for seven days, n=8 per group.
Setting [4] is: 129Sv male mice, 0.8 mg/kg subcutaneously once daily for two weeks, n=10 per group.

Square brackets hold non-standard residues; d marks the D form. Ends that are not written are not given here. * marks the point of attachment. Octanoyl = CCCCCCCC(=O)*; Dap = NC[C@H](N)C(=O)O

Take “un-acylated SEQ ID NO:5: 29 amino acid human ghrelin splice variant without acyl group (GSSFLSPEHQRVQVRPPHKAPHVVPALPL; listed as Homo sapiens)”: the “cumulative weight gain, less than the vehicle-injected control animals” value in assay [1] (setting [3]) was determined as 25%. For the same substance, the “cumulative food consumption, less than the vehicle-injected control animals” value in assay [1] (129Sv mice, 7.2 mg/kg subcutaneously once daily for seven days, n=8 per group) is reported as 2%.
Take “acylated SEQ ID NO:5: 29 amino acid human ghrelin splice variant, acylated at position 3 (GSSFLSPEHQRVQVRPPHKAPHVVPALPL; also: acylated at position 3 (acyl group not given here); listed as Homo sapiens)”: the “cumulative weight gain, times more than the vehicle-injected control animals” value in assay [1] (setting [4]) came to 2 times.
Consider “GSS (CO—C7H15) FLSPEHQRVQVRPPHKAPH (GSS(Octanoyl)FLSPEHQRVQVRPPHKAPH; listed as Homo sapiens) [SEQ ID NO:2, 22 amino acid human ghrelin splice variant, acylated at position 3]”, for which the “cumulative weight gain, times more than the vehicle-injected control animals” value in assay [1] (setting [4]) came out at 3.4 times; in assay [1] (setting [3]) it was 2.2 times.
As to “SEQ ID NO:4: 24 amino acid human ghrelin splice variant having a 2,3-diaminopropionic acid (Dpr) residue in the third position, acylated (GS[Dap]FLSPEHQRVQVRPPHKAPHVV; also: Dpr3 acylated, acyl group not given here; listed as Homo sapiens)”, the “cumulative weight gain, times more than the vehicle-injected control animals” value in assay [1] (setting [3]) was 2.2 times.
With “ghrelin: 28 amino acid peptide bearing an n-octanoyl side chain on the third serine (GSS(Octanoyl)FLSPEHQRVQQRKESKKPPAKLQPR; UniProt Q9UBU3 24-51, looked up)”, the “effect of weight gain (lean vs fat mass)” value in assay [1] (Applicant's statement in the background) is on record as “mainly on fat mass”. For the same substance, in assay [2] (infusion for 90 minutes, cancer cachexia patients), the “increase of food intake” value was 30%. Besides, the “increase of energy intake” value in assay [2] (subcutaneous injection of 3.6 nmol/kg prior to a meal) is 27%.
